Data on 1 compound can be found in patent US11760984B2, “CRISPR protein inhibitors” (THE BROAD INSTITUTE, INC., priority 2017, dated 2023).

The assay addresses SpCas9 (Streptococcus pyogenes serotype M1, UniProt Q99ZW2). The assay is described as follows: Cas9 nuclease activity in EGFP disruption assay (U2OS.eGFP.PEST cells). Type of assay: cell-based. On the set-up: host or cells: U2OS.eGFP-PEST. Particulars: 10 μM. The method, then: (§1) Cas9 Nuclease activity in EGFP disruption assay. Approximately 200,000 U2OS.eGFP-PEST cells were nucleofected with 400 ng of SpCas9 (Addgene Plasmid #43861) and 40 ng of sgRNA (pFYF1320 EGFP Site #1, Addgene Plasmid #47511) expressing plasmids along with a Td-tomato-encoding plasmid using the SE Cell Line 4D-Nucleofector™ X Kit (Lonza) according to the manufacturer's protocol. Approximately 20,000 transfected cells/well in 3 replicates were plated in a 96-well plate (Corning® 3904). Cells were allowed to grow in the indicated amount of compound or DMSO for 24 h post transfection. Cells were then fixed using 4% paraformaldehyde and imaged with the HCS NuclearMask™ Blue Stain (Life Technologies) as the nuclear counter-staining agent. Imaging was performed with an IXM 137204 ImageXpress Automated High Content Microscope (Molecular Devices) at 10× magnification under three excitation channels (blue, green and red) with 9 acquiring sites per well. Images were analyzed in the MetaXpress software and data were plotted using GraphPad Prism 6. The Z′-value was calculated following the formula: […]
Cas9 Nuclease activity in EGFP disruption assay. In some embodiments, a quantitative human cell-based reporter assay that enables rapid quantitation of targeted nuclease activities is used to characterize off-target cleavage of CRISPR protein-based RNA guided endonucleases. In this assay, the activities of nucleases targeted to a single integrated EGFP reporter gene can be quantified by assessing loss of fluorescence signal in human U2OS.EGFP cells caused by inactivating frameshift insertion/deletion (indel) mutations introduced by error prone non-homologous end-joining (NHEJ) repair of nuclease-induced double-stranded breaks (DSBs).
as §1, with “Approximately” for “Cas9 Nuclease activity in EGFP disruption assay. Approximately”

Sequence of SpCas9 (Q99ZW2 whole entry): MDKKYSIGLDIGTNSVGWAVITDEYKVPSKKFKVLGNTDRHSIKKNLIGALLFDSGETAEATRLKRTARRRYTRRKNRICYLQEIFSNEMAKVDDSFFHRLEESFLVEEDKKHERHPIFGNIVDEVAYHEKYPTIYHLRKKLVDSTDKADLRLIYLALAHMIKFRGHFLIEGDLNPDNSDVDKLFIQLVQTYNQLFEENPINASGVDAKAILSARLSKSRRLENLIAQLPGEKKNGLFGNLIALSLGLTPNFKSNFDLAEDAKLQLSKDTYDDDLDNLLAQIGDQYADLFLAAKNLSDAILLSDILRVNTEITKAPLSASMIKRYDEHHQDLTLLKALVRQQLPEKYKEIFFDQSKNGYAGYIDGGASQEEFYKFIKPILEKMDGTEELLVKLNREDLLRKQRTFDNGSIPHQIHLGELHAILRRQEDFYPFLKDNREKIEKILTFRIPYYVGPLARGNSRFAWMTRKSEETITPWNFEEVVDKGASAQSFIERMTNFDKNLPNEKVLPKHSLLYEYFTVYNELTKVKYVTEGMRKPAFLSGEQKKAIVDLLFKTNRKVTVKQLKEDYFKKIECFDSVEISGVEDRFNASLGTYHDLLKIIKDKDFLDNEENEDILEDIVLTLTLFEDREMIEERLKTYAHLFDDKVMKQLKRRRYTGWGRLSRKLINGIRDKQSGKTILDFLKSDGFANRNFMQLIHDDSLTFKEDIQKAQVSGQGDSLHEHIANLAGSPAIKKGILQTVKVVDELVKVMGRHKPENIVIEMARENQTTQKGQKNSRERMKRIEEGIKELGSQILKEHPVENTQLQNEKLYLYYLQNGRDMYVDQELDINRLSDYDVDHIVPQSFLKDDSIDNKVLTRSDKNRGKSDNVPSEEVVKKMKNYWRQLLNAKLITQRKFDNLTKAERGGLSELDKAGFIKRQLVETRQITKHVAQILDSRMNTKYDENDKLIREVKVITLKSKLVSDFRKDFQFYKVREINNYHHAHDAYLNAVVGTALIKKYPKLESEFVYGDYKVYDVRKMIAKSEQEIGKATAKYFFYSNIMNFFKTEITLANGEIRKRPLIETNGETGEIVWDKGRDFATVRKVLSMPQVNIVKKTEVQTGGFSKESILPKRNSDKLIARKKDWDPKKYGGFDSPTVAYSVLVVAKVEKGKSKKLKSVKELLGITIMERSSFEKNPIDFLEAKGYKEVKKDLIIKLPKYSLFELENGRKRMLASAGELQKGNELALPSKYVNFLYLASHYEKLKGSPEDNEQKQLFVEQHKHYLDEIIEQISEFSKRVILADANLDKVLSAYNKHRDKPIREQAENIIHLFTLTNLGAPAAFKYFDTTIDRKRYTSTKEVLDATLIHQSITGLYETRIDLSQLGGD

The term inhibition denotes the drop in the measured response relative to a control, in per cent. Low values mean a weak effect, high ones a strong effect. Turning to `OC[C@H]1Nc2ccc(-c3cccc(F)c3)cc2[C@H]2[C@@H]1CCN2Cc1ccncc1` [BRD7087, ((3aR,4S,9bR)-8-(3-Fluorophenyl)-1-(pyridin-4-ylmethyl)-2,3,3a,4,5,9b-hexahydro-1H-pyrrolo[3,2-c]quinolin-4-yl)methanol], testing at 10 µM gave an inhibition of 44% and the “inhibition of SpCas9 activity” value stood at 44%.
